In ChEMBL document CHEMBL1201862, “PubChem BioAssay data set” (2004):
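Following 48 hours of exposure in 96-well plates, responses at five concentrations were used to interpolate endpoints linearly. At the GI50, growth is halved.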 Active and inactive are the calls of the source. Cut-off read from the data, not from the text of the source: active = GI50 up to about 1.1 µM and inactive = higher.

What was measured:
Assay in all cases: NCI-60 cell line screen, 48 h
SK-OV-3 = system: SK-OV-3
SN12C = system: SN12C
PC-3 = system: PC-3
NCI-H23 = system: NCI-H23
HT-29 = system: HT-29
OVCAR-8 = system: OVCAR-8
MOLT-4 = system: MOLT-4
NCI-H522 = system: NCI-H522
HOP-62 = system: HOP-62
SNB-75 = system: SNB-75
T47D = system: T47D
OVCAR-5 = system: OVCAR-5
K562 = system: K562
UACC-257 = system: UACC-257
SK-MEL-28 = system: SK-MEL-28
RPMI-8226 = system: RPMI-8226
SNB-19 = system: SNB-19
RXF 393 = system: RXF 393
IGROV-1 = system: IGROV-1
NCI-H226 = system: NCI-H226
MDA-MB-231 = system: MDA-MB-231
786-0 = system: 786-0
A549 = system: A549
MCF7 = system: MCF7
OVCAR-3 = system: OVCAR-3
UO-31 = system: UO-31
HOP-92 = system: HOP-92
Hs-578T = system: Hs-578T
A498 = system: A498
SF-539 = system: SF-539
EKVX = system: EKVX
SF-268 = system: SF-268
CAKI-1 = system: CAKI-1
MDA-N = system: MDA-N
MDA-MB-435 = system: MDA-MB-435
NCI-H460 = system: NCI-H460
HCT-116 = system: HCT-116
NCI/ADR-RES = system: NCI/ADR-RES
BT-549 = system: BT-549
UACC-62 = system: UACC-62
M14 = system: M14
ACHN = system: ACHN
LOX IMVI = system: LOX IMVI
SW-620 = system: SW-620
KM12 = system: KM12
U-251 = system: U-251
OVCAR-4 = system: OVCAR-4
Malme-3M = system: Malme-3M
SK-MEL-5 = system: SK-MEL-5
SF-295 = system: SF-295
COLO 205 = system: COLO 205
HCT-15 = system: HCT-15
TK-10 = system: TK-10
SR = system: SR
SK-MEL-2 = system: SK-MEL-2
HL-60 = system: HL-60
DU-145 = system: DU-145
CCRF-CEM = system: CCRF-CEM

Compound: c1ccc(CNCCN2CCNCC2)nc1
- GI50 (SK-OV-3): > 100 µM (inactive)
- GI50 (SN12C): > 100 µM (inactive)
- GI50 (PC-3): > 100 µM (inactive)
- GI50 (NCI-H23): > 100 µM (inactive)
- GI50 (HT-29): > 100 µM (inactive)
- GI50 (OVCAR-8): > 100 µM (inactive)
- GI50 (MOLT-4): > 100 µM (inactive)
- GI50 (NCI-H522): > 100 µM (inactive)
- GI50 (HOP-62): > 100 µM (inactive)
- GI50 (SNB-75): 52 µM (inactive)
- GI50 (T47D): > 100 µM (inactive)
- GI50 (OVCAR-5): > 100 µM (inactive)
- GI50 (K562): > 100 µM (inactive)
- GI50 (UACC-257): > 100 µM (inactive)
- GI50 (SK-MEL-28): > 100 µM (inactive)
- GI50 (RPMI-8226): > 100 µM (inactive)
- GI50 (SNB-19): > 100 µM (inactive)
- GI50 (RXF 393): > 100 µM (inactive)
- GI50 (IGROV-1): > 100 µM (inactive)
- GI50 (NCI-H226): > 100 µM (inactive)
- GI50 (MDA-MB-231): > 100 µM (inactive)
- GI50 (786-0): > 100 µM (inactive)
- GI50 (A549): > 100 µM (inactive)
- GI50 (MCF7): > 100 µM (inactive)
- GI50 (OVCAR-3): > 100 µM (inactive)
- GI50 (UO-31): > 100 µM (inactive)
- GI50 (HOP-92): > 100 µM (inactive)
- GI50 (Hs-578T): > 100 µM (inactive)
- GI50 (A498): > 100 µM (inactive)
- GI50 (SF-539): > 100 µM (inactive)
- GI50 (EKVX): > 100 µM (inactive)
- GI50 (SF-268): > 100 µM (inactive)
- GI50 (CAKI-1): > 100 µM (inactive)
- GI50 (MDA-N): > 100 µM (inactive)
- GI50 (MDA-MB-435): > 100 µM (inactive)
- GI50 (NCI-H460): > 100 µM (inactive)
- GI50 (HCT-116): > 100 µM (inactive)
- GI50 (NCI/ADR-RES): > 100 µM (inactive)
- GI50 (BT-549): > 100 µM (inactive)
- GI50 (UACC-62): > 100 µM (inactive)
- GI50 (M14): > 100 µM (inactive)
- GI50 (ACHN): > 100 µM (inactive)
- GI50 (LOX IMVI): > 100 µM (inactive)
- GI50 (SW-620): > 100 µM (inactive)
- GI50 (KM12): > 100 µM (inactive)
- GI50 (U-251): > 100 µM (inactive)
- GI50 (OVCAR-4): > 100 µM (inactive)
- GI50 (Malme-3M): > 100 µM (inactive)
- GI50 (SK-MEL-5): > 100 µM (inactive)
- GI50 (SF-295): > 100 µM (inactive)
- GI50 (COLO 205): > 100 µM (inactive)
- GI50 (HCT-15): > 100 µM
- GI50 (TK-10): > 100 µM (inactive)
- GI50 (SR): > 100 µM (inactive)
- GI50 (SK-MEL-2): > 100 µM (inactive)

Compound: COc1ccc(C(c2cc3c(cc2O)OCO3)N2CCOCC2)cc1OC (stereo unspecified)
- GI50 (SK-OV-3): 14.1 µM (inactive)
- GI50 (SN12C): 10.2 µM (inactive)
- GI50 (PC-3): 11.1 µM (inactive)
- GI50 (NCI-H23): 4.15 µM (inactive)
- GI50 (HT-29): 12.9 µM (inactive)
- GI50 (OVCAR-8): 5.02 µM (inactive)
- GI50 (MOLT-4): 3.48 µM (inactive)
- GI50 (NCI-H522): 3.28 µM (inactive)
- GI50 (HOP-62): 15.7 µM (inactive)
- GI50 (SNB-75): 15.3 µM (inactive)
- GI50 (T47D): 16.9 µM (inactive)
- GI50 (OVCAR-5): 9.95 µM (inactive)
- GI50 (K562): 7.6 µM (inactive)
- GI50 (UACC-257): 15.7 µM (inactive)
- GI50 (SK-MEL-28): 17.5 µM (inactive)
- GI50 (RPMI-8226): 2.66 µM (inactive)
- GI50 (SNB-19): 16.7 µM (inactive)
- GI50 (HL-60): 25.4 µM (inactive)
- GI50 (RXF 393): 18.8 µM (inactive)
- GI50 (IGROV-1): 14.9 µM (inactive)
- GI50 (NCI-H226): 11.1 µM (inactive)
- GI50 (MDA-MB-231): 3.5 µM (inactive)
- GI50 (786-0): 11.1 µM (inactive)
- GI50 (A549): 22.4 µM (inactive)
- GI50 (MCF7): 12.8 µM (inactive)
- GI50 (OVCAR-3): 7.8 µM (inactive)
- GI50 (UO-31): 11.1 µM (inactive)
- GI50 (HOP-92): 16 µM (inactive)
- GI50 (Hs-578T): 2.75 µM (inactive)
- GI50 (SF-539): 14.6 µM (inactive)
- GI50 (EKVX): 19.1 µM (inactive)
- GI50 (SF-268): 10.9 µM (inactive)
- GI50 (CAKI-1): 12.8 µM (inactive)
- GI50 (MDA-MB-435): 11.3 µM (inactive)
- GI50 (NCI-H460): 22 µM (inactive)
- GI50 (HCT-116): 10.9 µM (inactive)
- GI50 (NCI/ADR-RES): 5.89 µM (inactive)
- GI50 (BT-549): 5.28 µM (inactive)
- GI50 (UACC-62): 5.75 µM (inactive)
- GI50 (M14): 12.4 µM (inactive)
- GI50 (ACHN): 11.4 µM (inactive)
- GI50 (LOX IMVI): 4.01 µM (inactive)
- GI50 (SW-620): 2.72 µM (inactive)
- GI50 (KM12): 12.4 µM (inactive)
- GI50 (DU-145): 12.1 µM (inactive)
- GI50 (U-251): 9.64 µM (inactive)
- GI50 (OVCAR-4): 15.6 µM (inactive)
- GI50 (Malme-3M): 13.1 µM (inactive)
- GI50 (SK-MEL-5): 13.5 µM (inactive)
- GI50 (SF-295): 14.2 µM (inactive)
- GI50 (COLO 205): 15.3 µM (inactive)
- GI50 (HCT-15): 3.95 µM
- GI50 (TK-10): 13.4 µM (inactive)
- GI50 (SR): 1.89 µM (inactive)
- GI50 (SK-MEL-2): 16.6 µM (inactive)
- GI50 (CCRF-CEM): 0.327 µM (active)
